From US12503436B2, “Compounds and compositions for treating conditions associated with STING activity” (NOVARTIS PHARMA AG, priority 2021, dated 2025)

What follows are compounds tested against STING (Homo sapiens, UniProt Q86WV6, G230A/H232R/R293Q/R71H) (assay: STING reporter assay in THP1-Dual KO-IFNAR2 cells (2′3′cGAMP stimulation, luciferase reporter)). Conditions: 15 μM 2′3′cGAMP stimulation, 24 h, read-out: Pharmaron, THP1_IFNAR2 STING 24 h Luci Normalized: GeoMean EC50.
Assay type: cell-based
How it was run: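 EC50 from secreted luciferase (QUANTI-Luc Plus luminescence of supernatant) after 24 h at 37 °C, 5% CO2. Cells: THP1-Dual KO-IFNAR2, treated with compound (0.0017-100 μM final) plus lipofected 2′3′cGAMP at 15 μM final.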

Chain of STING (Q86WV6 whole entry R71H/G230A/H232R/R293Q): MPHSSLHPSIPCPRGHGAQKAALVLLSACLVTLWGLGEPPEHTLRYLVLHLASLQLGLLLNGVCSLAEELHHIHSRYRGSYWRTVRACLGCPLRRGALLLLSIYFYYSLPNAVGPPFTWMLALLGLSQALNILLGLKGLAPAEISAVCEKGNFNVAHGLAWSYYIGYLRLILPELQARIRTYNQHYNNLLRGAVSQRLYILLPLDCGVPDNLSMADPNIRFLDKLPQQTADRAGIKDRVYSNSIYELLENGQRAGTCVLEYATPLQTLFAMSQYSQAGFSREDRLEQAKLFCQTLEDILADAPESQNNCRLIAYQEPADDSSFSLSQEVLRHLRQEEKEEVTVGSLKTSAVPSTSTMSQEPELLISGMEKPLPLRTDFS

`N#CC1(C(=O)Nc2c[nH]c3ccc(CCOc4ccc(C(F)(F)F)cc4)cc23)CC1` [Compound 398, 1-cyano-N-(5-(2-(4-(trifluoromethyl)phenoxy)ethyl)-1H-indol-3-yl)cyclopropane-1-carboxamide] and “3-methyl-N-(5-(2-((3aR,5r,6aS)-2-(2,2,2-trifluoroethyl)octahydrocyclopenta[c]pyrrol-5-yl)ethoxy)-1H-indol-3-yl)oxetane-3-carboxamide [Compound 382]” fall in the same range of EC50: 200 to 1000 nM for the first, 200 to 1000 nM for the second.

First: C[C@]1(C(=O)Nc2c[nH]c3ccc(OCC[C@@H]4C[C@@H]5CN(CC(F)(F)F)C[C@@H]5C4)cc23)C[C@H](O)C1 [Compound 514, (1r,3R)-3-hydroxy-1-methyl-N-(5-(2-((3aR,5r,6aS)-2-(2,2,2-trifluoroethyl)octahydrocyclopenta[c]pyrrol-5-yl)ethoxy)-1H-indol-3-yl)cyclobutane-l-carboxamide]
Second: CN1CC(C(=O)Nc2c[nH]c3ccc(OCCc4ccc(C(F)(F)F)cc4)cc23)C1 [Compound 311, 1-methyl-N-(5-(4-(trifluoromethyl)phenethoxy)-1H-indol-3-yl)azetidine-3-carboxamide]
The EC50 of the first is lower: 200 to 1000 nM for the first, 1000 to 5000 nM for the second. The first is the more potent here.

Compared with `CC(=O)Nc1c[nH]c2ccc(OCCC3CCN(CC(F)(F)F)CC3)cc12` [Compound 122, N-(5-(2-(1-(2,2,2-trifluoroethyl)piperidin-4-yl)ethoxy)-1H-indol-3-yl)acetamide], `CC(=O)Nc1c[nH]c2ccc(OCC(F)(F)CN3CCC(F)(F)CC3)cc12` [Compound 112, N-(5-(3-(4,4-difluoropiperidin-1-yl)-2,2-difluoropropoxy)-1H-indol-3-yl)acetamide] is higher in EC50: 200 to 1000 nM for the first, 5000 to 100000 nM for the second. The first is the more potent here.

First: O=C(Nc1c[nH]c2ccc(CCOc3ccc(C(F)(F)F)cc3)cc12)C1CC(Cl)C1 (stereo not shown) [Compound 177, 3-chloro-N-(5-(2-(4-(trifluoromethyl)phenoxy)ethyl)-1H-indol-3-yl)cyclobutane-1-carboxamide]
Second: CC(=O)Nc1c[nH]c2ccc(CCO[C@@H]3C[C@@H]4CN(CC(F)(F)F)C[C@@H]4C3)cc12 [Compound 293]
The EC50 of the first is lower: 200 to 1000 nM for the first, 5000 to 100000 nM for the second. The first is the more potent here.

`CC1(C(=O)Nc2c[nH]c3ccc(O[C@H]4C[C@@H](c5ccc(C(F)(F)F)cc5)C4)cc23)COC1` [Compound 378, 3-methyl-N-(5-(cis-3-(4-(trifluoromethyl)phenyl)cyclobutoxy)-1H-indol-3-yl)oxetane-3-carboxamide] and `CC(=O)Nc1c[nH]c2ccc(CCOc3ccc(C(F)(F)F)cc3Br)cc12` [Compound 544, N-(5-(2-(2-bromo-4-(trifluoromethyl)phenoxy)ethyl)-1H-indol-3-yl)acetamide] fall in the same range of EC50: 200 to 1000 nM for the first, 200 to 1000 nM for the second.

Compared with `CC1(C(=O)Nc2c[nH]c3ccc(O[C@H]4C[C@H](c5ccc(C(F)(F)F)cc5)C4)cc23)CCNCC1` [Compound 460, 4-methyl-N-{5-[(1R,3R)-3-[4-(trifluoromethyl)phenyl]cyclobutoxy]-1H-indol-3-yl}piperidine-4-carboxamide], `O=C(Nc1c[nH]c2ccc(O[C@H]3C[C@H](c4ccc(C(F)(F)F)cc4)C3)cc12)C1CN(CCC(F)(F)F)C1` [Compound 227, N-(5-(trans-3-(4-(trifluoromethyl)phenyl)cyclobutoxy)-1H-indol-3-yl)-1-(3,3,3-trifluoropropyl)azetidine-3-carboxamide] is lower in EC50: 1000 to 5000 nM for the first, 40 to 200 nM for the second.

First: O=C(Nc1c[nH]c2ccc(CCOc3ccc(C(F)(F)F)cc3)cc12)C1CC(CO)C1 (stereo not shown) [Compound 308, 3-(hydroxymethyl)-N-(5-(2-(4-(trifluoromethyl)phenoxy)ethyl)-1H-indol-3-yl)cyclobutane-1-carboxamide]
Second: O=C(Nc1c[nH]c2ccc(OCC[C@@H]3C[C@@H]4CN(CC(F)(F)F)C[C@@H]4C3)cc12)C1CC1 [Compound 182, N-(5-(2-((3aR,5r,6aS)-2-(2,2,2-trifluoroethyl)octahydrocyclopenta[c]pyrrol-5-yl)ethoxy)-1H-indol-3-yl)cyclopropanecarboxamide]
The EC50 of the first is lower: 40 to 200 nM for the first, 200 to 1000 nM for the second. The first is the more potent here.

First: CC(=O)Nc1c[nH]c2ccc(OC3CCc4cc(C(F)(F)F)ccc4C3)cc12 (stereo not shown) [Compound 436, N-(5-((6-(trifluoromethyl)-1,2,3,4-tetrahydronaphthalen-2-yl)oxy)-1H-indol-3-yl)acetamide]
Second: O=C(Nc1c[nH]c2ccc(OCc3ccc(C(F)(F)F)cc3)cc12)C1CC(F)(F)C1 [Compound 584, 3,3-difluoro-N-(5-((4-(trifluoromethyl)benzyl)oxy)-1H-indol-3-yl)cyclobutane-1-carboxamide]
The EC50 of the first is lower: 40 to 200 nM for the first, 200 to 1000 nM for the second.

First: CC1(C(=O)Nc2c[nH]c3ccc(O[C@H]4C[C@H](c5ccc(C(F)(F)F)cc5)C4)cc23)CCCO1 (stereo partly drawn) [Compound 487, 2-methyl-N-{5-[(1R,3R)-3-[4-(trifluoromethyl)phenyl]cyclobutoxy]-1H-indol-3-yl}oxolane-2-carboxamide]
Second: COCCOCC(=O)Nc1c[nH]c2ccc(OCc3ccc(C(F)(F)F)cc3)cc12 [Compound 404, 2-(2-methoxyethoxy)-N-(5-((4-(trifluoromethyl)benzyl)oxy)-1H-indol-3-yl)acetamide]
The EC50 of the first is lower: 40 to 200 nM for the first, 1000 to 5000 nM for the second.

First: O=C(Nc1c[nH]c2ccc(OCCC3CCN(CC(F)(F)F)CC3)cc12)C1CCC1 [Compound 129, N-(5-(2-(1-(2,2,2-trifluoroethyl)piperidin-4-yl)ethoxy)-1H-indol-3-yl)cyclobutanecarboxamide]
Second: CC(=O)Nc1c[nH]c2ccc(OCCC3CCCN(CC(F)(F)F)C3)cc12 (single isomer, unassigned) [Compound 279]
The EC50 of the first is lower: 200 to 1000 nM for the first, 1000 to 5000 nM for the second. The first is the more potent here.

Compared with `CC(=O)Nc1c[nH]c2ccc(OCCC3CCCN(CC(F)(F)F)C3)cc12` (single isomer, unassigned) [Compound 280], `O=C(Nc1c[nH]c2ccc(OCC[C@@H]3C[C@@H]4CN(CC(F)(F)F)C[C@@H]4C3)cc12)C1CC(F)(F)C1` [Compound 588, 3,3-difluoro-N-(5-(2-((3aR,5r,6aS)-2-(2,2,2-trifluoroethyl)octahydrocyclopenta[c]pyrrol-5-yl)ethoxy)-1H-indol-3-yl)cyclobutane-1-carboxamide] is lower in EC50: 1000 to 5000 nM for the first, 40 to 200 nM for the second.

Compared with `CC(=O)Nc1c[nH]c2ccc(CCOc3ccc(C(F)(F)F)cc3)nc12` [Compound 255, N-(5-(2-(4-(trifluoromethyl)phenoxy)ethyl)-1H-pyrrolo[3,2-b]pyridin-3-yl)acetamide], `CCC(=O)Nc1c[nH]c2ccc(OCCc3ccc(C(F)(F)F)cc3)cc12` [Compound 146, N-(5-(4-(trifluoromethyl)phenethoxy)-1H-indol-3-yl)propionamide] is lower in EC50: 1000 to 5000 nM for the first, 40 to 200 nM for the second.

`CC(=O)Nc1c[nH]c2ccc(COCc3cccc(C(F)(F)F)c3)cc12` [Compound 106, N-(5-(((3-(trifluoromethyl)benzyl)oxy)methyl)-1H-indol-3-yl)acetamide] and `O=C(Nc1c[nH]c2ccc(O[C@H]3C[C@H](c4ccc(C(F)(F)F)nc4)C3)cc12)[C@H]1C[C@H](CO)C1` [Compound 553, trans-3-(hydroxymethyl)-N-(5-(trans-3-(6-(trifluoromethyl)pyridin-3-yl)cyclobutoxy)-1H-indol-3-yl)cyclobutane-1-carboxamide] fall in the same range of EC50: 200 to 1000 nM for the first, 200 to 1000 nM for the second.

`CC(=O)Nc1c[nH]c2ccc(CCSc3ccc(C(F)(F)F)cc3)cc12` [Compound 256, N-(5-(2-((4-(trifluoromethyl)phenyl)thio)ethyl)-1H-indol-3-yl)acetamide] and `COCCc1ccc(OCCc2ccc3[nH]cc(NC(C)=O)c3c2)cc1` [Compound 461, N-(5-{2-[4-(2-methoxyethyl)phenoxy]ethyl}-1H-indol-3-yl)acetamide] fall in the same range of EC50: 200 to 1000 nM for the first, 200 to 1000 nM for the second.

First: CC1(C(=O)Nc2c[nH]c3ccc(OCCc4ccc(C(F)(F)F)cc4)cc23)CCCO1 (stereo not shown) [Compound 191, 2-methyl-N-(5-(4-(trifluoromethyl)phenethoxy)-1H-indol-3-yl)tetrahydrofuran-2-carboxamide]
Second: O=C(Nc1c[nH]c2ccc(OCCc3ccc(C(F)(F)F)cc3)cc12)C1CC(Cl)C1 (stereo not shown) [Compound 217, 3-chloro-N-(5-(4-(trifluoromethyl)phenethoxy)-1H-indol-3-yl)cyclobutane-1-carboxamide]
The EC50 of the first is higher: 200 to 1000 nM for the first, 40 to 200 nM for the second. The second is the more potent here.

First: COC1CC(C(=O)Nc2c[nH]c3ccc(OCc4ccc(C(F)(F)F)cc4)cc23)C1 (stereo not shown) [Compound 352, 3-methoxy-N-(5-((4-(trifluoromethyl)benzyl)oxy)-1H-indol-3-yl)cyclobutane-1-carboxamide]
Second: N#C[C@H]1C[C@@H]1C(=O)Nc1c[nH]c2ccc(OCC[C@@H]3C[C@@H]4CN(CC(F)(F)F)C[C@@H]4C3)cc12 [Compound 340, (1S,2S)-2-cyano-N-(5-(2-((3aR,5r,6aS)-2-(2,2,2-trifluoroethyl)octahydrocyclopenta[c]pyrrol-5-yl)ethoxy)-1H-indol-3-yl)cyclopropane-1-carboxamide]
The EC50 of the first is lower: 40 to 200 nM for the first, 1000 to 5000 nM for the second. The first is the more potent here.

Compared with `N#C[C@@H]1C[C@@H]1C(=O)Nc1c[nH]c2ccc(OCCc3ccc(C(F)(F)F)cc3)cc12` [Compound 188, (1S,2R)-2-cyano-N-(5-(4-(trifluoromethyl)phenethoxy)-1H-indol-3-yl)cyclopropane-1-carboxamide], `CC(=O)Nc1c[nH]c2ccc(CCOc3cccnc3)cc12` [Compound 581, N-(5-(2-(pyridin-3-yloxy)ethyl)-1H-indol-3-yl)acetamide] is higher in EC50: 200 to 1000 nM for the first, 5000 to 100000 nM for the second.

`CC1(F)CC(C(=O)Nc2c[nH]c3ccc(OCc4ccc(C(F)(F)F)cc4)cc23)C1` (stereo not shown) [Compound 323, 3-fluoro-3-methyl-N-(5-((4-(trifluoromethyl)benzyl)oxy)-1H-indol-3-yl)cyclobutane-1-carboxamide] and `COCCCC(=O)Nc1c[nH]c2ccc(OCCC3CCN(CC(F)(F)F)CC3)cc12` [Compound 121, 4-methoxy-N-(5-(2-(1-(2,2,2-trifluoroethyl)piperidin-4-yl)ethoxy)-1H-indol-3-yl)butanamide] fall in the same range of EC50: 200 to 1000 nM for the first, 200 to 1000 nM for the second.

With `CC(=O)Nc1c[nH]c2ccc(CCOc3cccc(C(C)N(C)C)c3)cc12` (stereo not shown) [Compound 536, N-(5-(2-(3-(1-(dimethylamino)ethyl)phenoxy)ethyl)-1H-indol-3-yl)acetamide] the EC50 was 5000 to 100000 nM.
